Type in all cases: cell-based
In one test the target is T1, TRPML3 (Homo sapiens, UniProt Q8TDD5).
T1 construct: expressed in transfected cells
T1 sequence (Q8TDD5 1-553): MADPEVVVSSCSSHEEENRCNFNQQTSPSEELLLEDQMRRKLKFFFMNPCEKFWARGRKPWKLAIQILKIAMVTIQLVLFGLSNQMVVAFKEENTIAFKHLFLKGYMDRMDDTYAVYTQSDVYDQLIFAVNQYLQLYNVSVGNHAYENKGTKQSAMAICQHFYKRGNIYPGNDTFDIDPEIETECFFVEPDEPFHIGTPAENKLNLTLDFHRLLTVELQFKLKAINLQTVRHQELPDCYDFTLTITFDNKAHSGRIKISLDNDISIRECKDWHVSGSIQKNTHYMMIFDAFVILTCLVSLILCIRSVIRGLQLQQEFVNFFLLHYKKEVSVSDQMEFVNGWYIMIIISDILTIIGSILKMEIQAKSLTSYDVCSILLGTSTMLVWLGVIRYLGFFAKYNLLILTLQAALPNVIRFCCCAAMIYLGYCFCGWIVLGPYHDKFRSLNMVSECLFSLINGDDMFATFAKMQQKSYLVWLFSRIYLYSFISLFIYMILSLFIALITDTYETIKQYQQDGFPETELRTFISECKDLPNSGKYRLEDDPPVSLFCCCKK
Description: Fluorescent TRPML3 assay (performed as for TRPML1, substituting the TRPML3 subtype). On the procedure:
(§1) HEK-293 Trex cells were stably transfected with a construct consisting of the human coding sequence for TRPML1 cloned into the […] plasmid pCDNA5 T/O. Mutations were introduced into the TRPML1 sequence to facilitate expression on the cell surface (Silvia Vergarajauregui, Rosa Puertollano, Traffic. 2006 March; 7(3): 337-353). Briefly, the cells are cultured in 150 mm round tissue culture dishes containing 20 mL of media. The day before the assay the cells are rinsed with DPBS-Ca—Mg and then treated briefly with Trypsin-EDTA. The Trypsin-EDTA is diluted with growth media, and cells are counted. 38×10^6 cells are re-plated into 150 mm round tissue culture dishes in media containing 0.5 ug/mL doxycycline to induce expression of hTRPML1.
(§2) The day of the experiment cells are lifted from the plates as above and collected by centrifugation. The cells are then suspended in dye loading buffer consisting of Ringer's solution supplemented with 0.1% Pluronic Acid and 1 micromolar Fluo4-AM dye. Cells are loaded for ˜60 minutes in the dark with occasional mixing. The cells are collected by centrifugation, the loading media aspirated, and the cells resuspended in 25 mL Ringer's solution and incubated ˜60 minutes in the dark. The cells are again collected by centrifugation, rinsed in Ringer's Solution and resuspended to […] in modified Ringer's solution containing 10 mM calcium.
(§3) Compounds are dissolved to a concentration of 10 millimolar with DMSO. Compound plates are created by dispensing compounds into 384 well black wall clear bottom plates (Greiner 781091). Positive and negative controls are included on each plate. Typically, different amounts of each compound are tested ranging from 100 nanoMoles (20 micromolar final concentration) decreasing in half-log steps to 31 picoMoles (6 nanomolar final concentration). Each concentration is typically tested in triplicate.
(§4) 50 microliters of dye-loaded cells are dispensed into each well of the compound assay plate created above. The fluorescence in each well is then determined with an excitation wavelength of 480 nm and an emission wavelength of 540 nm using either a Molecular Devices SpectraMax multimode plate reader or a Hamamatsu FDSS/uCell plate imager.
(§5) The resulting fluorescence for each well is exported as an ascii file and loaded into our LIMS for analysis. The percent activity of each compound at each concentration is determined by comparison to the positive and negative control wells included in each plate.
(§6) TRPML2 and TRPML3 Assays Assays for TRPML2 and TRPML3 were performed as above for TRPML1, by substituting the appropriate TRPML2 or TRPML3 subtype for the TRPML1.
(§7) EC50 values were calculated using a non-linear regression of Prism. In the table, “A” indicates an EC50 of less than 100 nM, “B” indicates an EC50 range from 100 nM to 500 nM; “C” indicates an EC50 range from 500 nM to 2 μM; and “D” indicates an EC50 greater than 2 μM.

The next test concerns the target TRPML1 (Homo sapiens, UniProt Q9GZU1). Description: Fluorescent TRPML1 assay (Fluo4-AM calcium fluorescence in doxycycline-induced HEK-293 Trex cells). The gist of the method: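 hTRPML1 (mutated for cell-surface expression) in HEK-293 Trex, dox 0.5 ug/mL o/n; Fluo4-AM 1 uM ~60 min, then ~60 min de-esterification, dark; modified Ringer's + 10 mM Ca. Cmpds 20 uM–6 nM final, half-log, n=3. Ex480/Em540; % activity vs ctrls; EC50 by nonlinear regression.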

A further test addresses T2, TRPML2 (Homo sapiens, UniProt Q8IZK6).
T2 construct: expressed in transfected cells
T2 sequence (Q8IZK6 1-566): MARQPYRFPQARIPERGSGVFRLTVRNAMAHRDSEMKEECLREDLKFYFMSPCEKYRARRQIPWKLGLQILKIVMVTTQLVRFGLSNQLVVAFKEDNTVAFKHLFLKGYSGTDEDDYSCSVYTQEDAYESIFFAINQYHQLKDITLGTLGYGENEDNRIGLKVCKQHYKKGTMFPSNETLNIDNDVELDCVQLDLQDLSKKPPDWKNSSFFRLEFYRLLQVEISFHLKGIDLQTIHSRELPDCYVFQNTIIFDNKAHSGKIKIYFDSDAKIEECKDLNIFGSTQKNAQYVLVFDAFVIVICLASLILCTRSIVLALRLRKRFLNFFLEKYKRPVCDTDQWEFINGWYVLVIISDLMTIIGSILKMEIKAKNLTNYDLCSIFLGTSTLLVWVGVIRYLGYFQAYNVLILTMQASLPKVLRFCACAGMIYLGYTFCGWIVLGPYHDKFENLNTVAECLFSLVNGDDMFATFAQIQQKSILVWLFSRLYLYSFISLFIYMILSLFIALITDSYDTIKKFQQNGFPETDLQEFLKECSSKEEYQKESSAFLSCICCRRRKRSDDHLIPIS
Description: Fluorescent TRPML2 assay (performed as for TRPML1, substituting the TRPML2 subtype). On the procedure: as §1, §2, §3, §4, §5, §6, §7

Read-outs that look alike come from different tables or passages of the source.

Chain of TRPML1 (Q9GZU1 whole entry L15A/L16A/L577A/L578A, form open): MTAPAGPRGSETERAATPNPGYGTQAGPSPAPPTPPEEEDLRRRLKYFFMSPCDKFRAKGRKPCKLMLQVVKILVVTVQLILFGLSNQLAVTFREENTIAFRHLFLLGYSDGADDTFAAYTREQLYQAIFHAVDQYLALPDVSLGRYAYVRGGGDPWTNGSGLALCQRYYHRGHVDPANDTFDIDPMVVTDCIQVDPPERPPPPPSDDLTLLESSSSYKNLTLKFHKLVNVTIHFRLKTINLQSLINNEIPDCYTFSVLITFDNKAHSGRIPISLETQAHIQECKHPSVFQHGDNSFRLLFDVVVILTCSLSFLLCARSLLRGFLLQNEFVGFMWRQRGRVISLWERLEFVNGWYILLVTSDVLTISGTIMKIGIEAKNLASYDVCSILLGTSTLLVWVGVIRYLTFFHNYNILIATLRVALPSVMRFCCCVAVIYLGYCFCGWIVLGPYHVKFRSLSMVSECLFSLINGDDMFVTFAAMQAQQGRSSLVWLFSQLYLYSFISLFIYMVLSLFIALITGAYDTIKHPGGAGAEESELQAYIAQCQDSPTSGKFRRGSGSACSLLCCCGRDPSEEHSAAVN

Usually EC50 stands for the concentration that produces a half-maximal response. Consider `Cc1cncc(-n2cc(C3CC3)c3c(N4CCN(C(=O)OC(C)(C)C)[C@@H](C)C4)ncnc32)c1` (single isomer, unassigned) [Compound 174], for which the EC50 at TRPML3 (fluorescent calcium assay) was 100 to 500 nM; at TRPML1 (fluorescent calcium assay), 100 to 500 nM; on TRPML2 (fluorescent calcium assay), 500 to 2000 nM.
`Cc1cncc(-n2cc(C3CC3)c3c(N4CCN(C(=O)OC(C)(C)C)[C@H](C)C4)ncnc32)c1` (single isomer, unassigned) [Compound 175]: the EC50 on TRPML3 (fluorescent calcium assay) is 500 to 2000 nM; at TRPML1 (fluorescent calcium assay), 500 to 2000 nM; at TRPML2 (fluorescent calcium assay) it was > 2000 nM.
For `CC(C)(C)OC(=O)N1CCN(c2ncnc3c2c(C2CC2)cn3-c2cc(F)cc(F)c2)C[C@H]1CF` (single isomer, unassigned) [Compound 269], the figures for the EC50 on TRPML3 (fluorescent calcium assay), at TRPML1 (fluorescent calcium assay) and at TRPML2 (fluorescent calcium assay) were < 100 nM, 100 to 500 nM and 500 to 2000 nM, respectively.
For `CC(C)(C)OC(=O)N1CCN(c2ncnc3c2c(C2CC2)cn3-c2cc(F)cc(F)c2)C[C@@H]1CF` (single isomer, unassigned) [Compound 270], in that order: 100 to 500 nM, 500 to 2000 nM and > 2000 nM.
Take `CC(C)(C)OC(=O)N1CCN(c2ncnc3c2c(C2CC2)cn3-c2cc(F)cc(F)c2)C[C@H]1C(F)F` (single isomer, unassigned) [Compound 314]: the EC50 on TRPML3 (fluorescent calcium assay) was 500 to 2000 nM; on TRPML1 (fluorescent calcium assay) it was 500 to 2000 nM; on TRPML2 (fluorescent calcium assay), > 2000 nM.
As for `CC(C)(C)OC(=O)N1CCN(c2ncnc3c2c(C2CC2)cn3-c2cc(C#N)ccn2)[C@@H]2C[C@@H]21` (single isomer, unassigned) [Compound 408], the results for the EC50 at TRPML3 (fluorescent calcium assay), at TRPML1 (fluorescent calcium assay) and at TRPML2 (fluorescent calcium assay) were < 100 nM, 100 to 500 nM and 100 to 500 nM, respectively.
As for `CC(C)(C)OC(=O)N1CCN(c2ncnc3c2c(C2CC2)cn3-c2cc(C#N)ccn2)[C@H]2C[C@H]21` (single isomer, unassigned) [Compound 409], the EC50 at TRPML3 (fluorescent calcium assay) was < 100 nM; on TRPML1 (fluorescent calcium assay), < 100 nM; at TRPML2 (fluorescent calcium assay), 100 to 500 nM.
For `C[C@@H]1CN(c2ncnc3c2c(C(F)(F)F)cn3[C@@H]2CCCC(F)(F)C2)[C@@H](C)CN1C(=O)OC(C)(C)C` (single isomer, unassigned) [Compound 714], the EC50 on TRPML3 was in the range of 100 to 500 nM; at TRPML1, 100 to 500 nM; at TRPML2 it was 500 to 2000 nM.
For the compound `CC(C)(C)OC(=O)N1CCN(c2ncnc3c2c(-c2ccccn2)cn3-c2cccc(Cl)c2)CC1` [Compound 101, tert-butyl 4-(7-(3-chlorophenyl)-5-(pyridin-2-yl)-7H-pyrrolo[2,3-d]pyrimidin-4-yl)piperazine-1-carboxylate], the results for the EC50 on TRPML3 (fluorescent calcium assay), on TRPML1 (fluorescent calcium assay) and on TRPML2 (fluorescent calcium assay) were < 100 nM, 100 to 500 nM and 100 to 500 nM, respectively.
Consider `C[C@H]1CN(C(=O)OC(C)(C)C)CCN1c1ncnc2c1c(-c1ccccc1)cn2-c1cc(C#N)ccn1` [Compound 320, tert-butyl (S)-4-(7-(4-cyanopyridin-2-yl)-5-phenyl-7H-pyrrolo[2,3-d]pyrimidin-4-yl)-3-methylpiperazine-1-carboxylate], for which the EC50 at TRPML1 (fluorescent calcium assay) is < 100 nM; at TRPML2 (fluorescent calcium assay), 100 to 500 nM.
With `COC(=O)N1CCN(c2ncnc3c2c(-c2ccccc2F)cn3-c2cc(C#N)ccn2)[C@@H](C)C1` [Compound 351, methyl (S)-4-(7-(4-cyanopyridin-2-yl)-5-(2-fluorophenyl)-7H-pyrrolo[2,3-d]pyrimidin-4-yl)-3-methylpiperazine-1-carboxylate], the EC50 at TRPML1 (fluorescent calcium assay) is < 100 nM; at TRPML2 (fluorescent calcium assay), 500 to 2000 nM.
Consider `C[C@@H]1CN(c2ncnc3c2c(C(F)(F)F)cn3C2CCOCC2)[C@@H](C)CN1C(=O)OC(C)(C)C` [Compound 630, tert-butyl (2R,5S)-2,5-dimethyl-4-(7-(tetrahydro-2H-pyran-4-yl)-5-(trifluoromethyl)-7H-pyrrolo[2,3-d]pyrimidin-4-yl)piperazine-1-carboxylate], for which the figures for the EC50 on TRPML3 and on TRPML1 were > 2000 nM and 500 to 2000 nM, respectively.
As to `C[C@@H]1CN(c2ncnc3c2c(C(F)(F)F)cn3[C@H]2CCCOC2)[C@@H](C)CN1C(=O)OC(C)(C)C` [Compound 631, tert-butyl (2R,5S)-2,5-dimethyl-4-(7-((S)-tetrahydro-2H-pyran-3-yl)-5-(trifluoromethyl)-7H-pyrrolo[2,3-d]pyrimidin-4-yl)piperazine-1-carboxylate], the values for the EC50 at TRPML3 and at TRPML1 were > 2000 nM and 500 to 2000 nM, respectively.
For `C[C@@H]1CN(c2ncnc3c2c(C(F)(F)F)cn3[C@@H]2CCCOC2)[C@@H](C)CN1C(=O)OC(C)(C)C` [Compound 632, tert-butyl (2R,5S)-2,5-dimethyl-4-(7-((R)-tetrahydro-2H-pyran-3-yl)-5-(trifluoromethyl)-7H-pyrrolo[2,3-d]pyrimidin-4-yl)piperazine-1-carboxylate], the EC50 is > 2000 nM on TRPML3 and 500 to 2000 nM at TRPML1.
`C[C@@H]1CN(c2ncnc3c2c(C(F)F)cn3C2CCC(C#N)C2)[C@@H](C)CN1C(=O)OC(C)(C)C` (stereo partly drawn) [Compound 634]: the EC50 on TRPML3 and at TRPML1 was 500 to 2000 nM in each case.
Turning to `Cc1cn(-c2cncnc2)c2ncnc(N3C[C@@H](C)N(C(=O)OC(C)(C)C)C[C@@H]3C)c12` [Compound 674, tert-butyl (2R,5S)-2,5-dimethyl-4-(5-methyl-7-(pyrimidin-5-yl)-7H-pyrrolo[2,3-d]pyrimidin-4-yl)piperazine-1-carboxylate], the EC50 at TRPML3 and on TRPML1 was > 2000 nM each time.
`Cc1cn(-c2cncnc2)c2ncnc(N3CCN(C(=O)OC(C)(C)C)C[C@@H]3C)c12` [Compound 691, tert-butyl (S)-3-methyl-4-(5-methyl-7-(pyrimidin-5-yl)-7H-pyrrolo[2,3-d]pyrimidin-4-yl)piperazine-1-carboxylate]: the EC50 on TRPML3 and at TRPML1 was 500 to 2000 nM throughout.
As for `Cc1cn(-c2cncc(C#N)c2)c2ncnc(N3CCN(C(=O)OC(C)(C)C)C[C@@H]3C)c12` [Compound 694, tert-butyl (S)-4-(7-(5-cyanopyridin-3-yl)-5-methyl-7H-pyrrolo[2,3-d]pyrimidin-4-yl)-3-methylpiperazine-1-carboxylate], the concentration giving a half-maximal response (EC50) on TRPML3 is < 100 nM; on TRPML1, 100 to 500 nM.

For the origin of these results see US20250136606A1, “MODULATORS OF TRPML, THEIR COMPOSITIONS AND METHODS OF USE” (Caraway Therapeutics, Inc., priority 2021, published 2025).
